Experiments:
Format in all cases: in vivo
[1] = tested on: sicklepod (Cassia obtusifolia, CASOB); assay: Post-emerge greenhouse herbicide test, phytotoxicity rating; settings: Senna obtusifolia, post-emergence, 336 h, 14 days after application, scale 0-100; for pest or weed control at 63 g/ha: rate 63 g ai/ha; for pest or weed control at 500 g/ha: rate 500 g ai/ha
Outline: (§1)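 Scores use a 0 (no damage) to 100 (complete kill) scale, taken 14 days after a foliar spray. Acetone solutions with 0.25% v/v non-ionic surfactant were applied by track sprayer at 187 l/ha and 63-1000 g ai/ha to bottom-watered 2-3 leaf plants.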

[2] = tested on: lambsquarters (Chenopodium album, CHEAL); assay: as above; settings: Chenopodium album, post-emergence, 336 h, 14 days after application, scale 0-100; for pest or weed control at 63 g/ha: rate 63 g ai/ha; for pest or weed control at 500 g/ha: rate 500 g ai/ha
Outline: as §1

[3] = tested on: large crabgrass (Digitaria sanguinalis, DIGSA); assay: as above; settings: Digitaria sanguinalis, post-emergence, 336 h, 14 days after application, scale 0-100; for pest or weed control at 63 g/ha: rate 63 g ai/ha; for pest or weed control at 500 g/ha: rate 500 g ai/ha
Outline: as §1

[4] = tested on: green foxtail (Setaria viridis, SETVI); assay: as above; settings: Setaria viridis, post-emergence, 336 h, 14 days after application, scale 0-100; for pest or weed control at 63 g/ha: rate 63 g ai/ha; for pest or weed control at 500 g/ha: rate 500 g ai/ha
Outline: as §1

[5] = tested on: ivyleaf morningglory (Ipomoea hederacea, IPOHE); assay: as above; settings: Ipomoea, post-emergence, 336 h, 14 days after application, scale 0-100; for pest or weed control at 63 g/ha: rate 63 g ai/ha; for pest or weed control at 500 g/ha: rate 500 g ai/ha
Outline: as §1

[6] = tested on: redroot pigweed (Amaranthus retroflexus, AMARE); assay: as above; settings: Amaranthus retroflexus, post-emergence, 336 h, 14 days after application, scale 0-100; for pest or weed control at 63 g/ha: rate 63 g ai/ha; for pest or weed control at 500 g/ha: rate 500 g ai/ha
Outline: as §1

[7] = tested on: barnyardgrass (Echinochloa crusgalli, ECHCG); assay: as above; settings: Echinochloa crus-galli, post-emergence, 336 h, 14 days after application, scale 0-100; for pest or weed control at 63 g/ha: rate 63 g ai/ha; for pest or weed control at 500 g/ha: rate 500 g ai/ha
Outline: as §1

[8] = tested on: velvetleaf (Abutilon theophrasti, ABUTH); assay: as above; settings: Abutilon theophrasti, post-emergence, 336 h, 14 days after application, scale 0-100; for pest or weed control at 63 g/ha: rate 63 g ai/ha; for pest or weed control at 500 g/ha: rate 500 g ai/ha
Outline: as §1

[9] = tested on: Johnsongrass (Sorghum halepense, SORHA); assay: as above; settings: Sorghum halepense, post-emergence, 336 h, 14 days after application, scale 0-100; for pest or weed control at 63 g/ha: rate 63 g ai/ha; for pest or weed control at 500 g/ha: rate 500 g ai/ha
Outline: as §1

[10] = tested on: sicklepod (Cassia obtusifolia, CASOB); assay: Pre-emerge greenhouse herbicide test, phytotoxicity rating; settings: Senna obtusifolia, pre-emergence, 336 h, 14 days after application, rating scale 0-100; for pest or weed control at 125 g/ha: Rate 125 g al/ha; for pest or weed control at 500 g/ha: Rate 500 g al/ha
Outline: (§2)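 Visual 0–100 injury rating (100 = all plants dead) taken 14 days after treatment. Rates of 125–1000 g ai/ha in acetone, 187 l/ha, were sprayed onto soil one day post-sowing; pots were surface-watered to incorporate, then bottom-watered.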

[11] = tested on: green foxtail (Setaria viridis, SETVI); assay: as above; settings: Setaria viridis, pre-emergence, 336 h, 14 days after application, rating scale 0-100; for pest or weed control at 125 g/ha: Rate 125 g al/ha; for pest or weed control at 500 g/ha: Rate 500 g al/ha
Outline: as §2

[12] = tested on: ivyleaf morningglory (Ipomoea hederacea, IPOHE); assay: as above; settings: Ipomoea, pre-emergence, 336 h, 14 days after application, rating scale 0-100; for pest or weed control at 125 g/ha: Rate 125 g al/ha; for pest or weed control at 500 g/ha: Rate 500 g al/ha
Outline: as §2

[13] = tested on: redroot pigweed (Amaranthus retroflexus, AMARE); assay: as above; settings: Amaranthus retroflexus, pre-emergence, 336 h, 14 days after application, rating scale 0-100; for pest or weed control at 125 g/ha: Rate 125 g al/ha; for pest or weed control at 500 g/ha: Rate 500 g al/ha
Outline: as §2

[14] = tested on: barnyardgrass (Echinochloa crusgalli, ECHCG); assay: as above; settings: Echinochloa crus-galli, pre-emergence, 336 h, 14 days after application, rating scale 0-100; for pest or weed control at 125 g/ha: Rate 125 g al/ha; for pest or weed control at 500 g/ha: Rate 500 g al/ha
Outline: as §2

[15] = tested on: Johnsongrass (Sorghum halepense, SORHA); assay: as above; settings: Sorghum halepense, pre-emergence, 336 h, 14 days after application, rating scale 0-100; for pest or weed control at 125 g/ha: Rate 125 g al/ha; for pest or weed control at 500 g/ha: Rate 500 g al/ha
Outline: as §2

Row | SMILES | pest or weed control at 63 g/ha [1] [%] | pest or weed control at 500 g/ha [1] [%] | pest or weed control at 63 g/ha [2] [%] | pest or weed control at 500 g/ha [2] [%] | pest or weed control at 63 g/ha [3] [%] | pest or weed control at 500 g/ha [3] [%] | pest or weed control at 63 g/ha [4] [%] | pest or weed control at 500 g/ha [4] [%] | pest or weed control at 63 g/ha [5] [%] | pest or weed control at 500 g/ha [5] [%] | pest or weed control at 63 g/ha [6] [%] | pest or weed control at 500 g/ha [6] [%] | pest or weed control at 63 g/ha [7] [%] | pest or weed control at 500 g/ha [7] [%] | pest or weed control at 63 g/ha [8] [%] | pest or weed control at 500 g/ha [8] [%] | pest or weed control at 63 g/ha [9] [%] | pest or weed control at 500 g/ha [9] [%] | pest or weed control at 125 g/ha [10] [%] | pest or weed control at 500 g/ha [10] [%] | also measured
1 | Nn1c(C(F)(F)F)cc(=O)n(-c2cc(Oc3ccc(Br)cn3)c(Cl)cc2F)c1=O [Compound 9-2, 1-Amino-3-[4-chloro-2-fluoro-5-(5-bromo-2-pyridyloxy)phenyl]-6-trifluoromethyl-1,2,3,4-tetrahydropyrimidine-2,4-dione] | 30 | 95 | 100 | 95 | 0 | 30 | 10 | 60 | 100 | 80 | 100 | 100 | 10 | 80 | 100 | 100 | 10 | 70 | 0 | 50 | pest or weed control at 125 g/ha [11]: 80%; pest or weed control at 500 g/ha [11]: 100%; pest or weed control at 125 g/ha [12]: 0%; pest or weed control at 500 g/ha [12]: 100%; pest or weed control at 125 g/ha [13]: 80%; pest or weed control at 500 g/ha [13]: 100%; pest or weed control at 125 g/ha [14]: 20%; pest or weed control at 500 g/ha [14]: 95%; pest or weed control at 125 g/ha [15]: 60%; pest or weed control at 500 g/ha [15]: 90%
2 | Cc1nsc(Oc2cc(-n3c(=O)cc(C(F)(F)F)n(N)c3=O)c(F)cc2Cl)c1[N+](=O)[O-] [Compound 9-14, 1-Amino-3-[4-Chloro-2-fluoro-5-(3-methyl-4-nitroisothiazol-5-yloxy)phenyl]-6-trifluoromethyl-1,2,3,4-tetrahydropyrimidine-2,4-dione] | 60 | 100 | 80 | 100 | 30 | 100 | 80 | 100 | 95 | 100 | 100 | 100 | 10 | 100 | 100 | 100 | 40 | 100 | 100 | 90 | pest or weed control at 125 g/ha [11]: 100%; pest or weed control at 500 g/ha [11]: 100%; pest or weed control at 125 g/ha [12]: 100%; pest or weed control at 500 g/ha [12]: 100%; pest or weed control at 125 g/ha [13]: 100%; pest or weed control at 500 g/ha [13]: 100%; pest or weed control at 125 g/ha [14]: 95%; pest or weed control at 500 g/ha [14]: 90%; pest or weed control at 125 g/ha [15]: 95%; pest or weed control at 500 g/ha [15]: 100%
3 | O=c1n(-c2cc(Oc3ncccn3)c(Cl)cc2F)c(=S)n2n1CCCC2 [Compound 8-29, 2-[4-chloro-2-fluoro-5-(2-pyrimidyloxy)phenyl]hexahydro-3-thioxo-1H-[1,2,4]triazolo[1,2-a]pyridazin-1-one] | 100 | 100 | 100 | 100 | 50 | 100 | 90 | 100 | 100 | 100 | 100 | 100 | 80 | 100 | 100 | 100 | 90 | 100 | 100 | 100 | pest or weed control at 125 g/ha [11]: 100%; pest or weed control at 500 g/ha [11]: 100%; pest or weed control at 125 g/ha [12]: 100%; pest or weed control at 500 g/ha [12]: 100%; pest or weed control at 125 g/ha [13]: 100%; pest or weed control at 500 g/ha [13]: 100%; pest or weed control at 125 g/ha [14]: 100%; pest or weed control at 500 g/ha [14]: 100%; pest or weed control at 125 g/ha [15]: 100%; pest or weed control at 500 g/ha [15]: 100%
4 | Nn1c(C(F)(F)F)cc(=O)n(-c2cc(Oc3ccccc3C(F)(F)F)c(Cl)cc2F)c1=O [Compound 9-24, 1-amino-3-[4-chloro-2-fluoro-5-(2-trifluoromethylphenoxy)phenyl]-6-trifluoromethyl-1,2,3,4-tetrahydropyrimidine-2,4-dione] | 30 | 80 | 100 | 100 | 40 | 75 | 70 | 95 | 100 | 100 | 100 | 100 | 30 | 90 | 100 | 100 | 30 | 70 | 30 | 0 | pest or weed control at 125 g/ha [11]: 100%; pest or weed control at 500 g/ha [11]: 100%; pest or weed control at 125 g/ha [12]: 30%; pest or weed control at 500 g/ha [12]: 30%; pest or weed control at 125 g/ha [13]: 95%; pest or weed control at 500 g/ha [13]: 100%; pest or weed control at 125 g/ha [14]: 60%; pest or weed control at 500 g/ha [14]: 70%; pest or weed control at 125 g/ha [15]: 30%; pest or weed control at 500 g/ha [15]: 90%
